From PubChem BioAssay (NCI)
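Step 1: Grow cells in 96-well plates. Step 2: Expose to compound for 48 hours at 5 concentrations. Step 3: Interpolate endpoints linearly; if unreached, use highest concentration. GI50 is the concentration that inhibits growth by half. TGI marks complete inhibition of growth.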

Columns and labels:
Test in all cases: NCI-60 cell line screen, 48 h
[1] = system: HCC-2998 colon
[2] = system: CCRF-CEM leukemia
[3] = system: SK-MEL-28 melanoma
[4] = system: U251 CNS
[5] = system: OVCAR-3 ovarian
[6] = system: OVCAR-4 ovarian
[7] = system: SN12C renal
[8] = system: UACC-257 melanoma
[9] = system: HT29 colon
[10] = system: MDA-MB-231 breast

| Compound | GI50 [1] [µM] | TGI [1] [µM] | GI50 [2] [µM] | TGI [2] [µM] | GI50 [3] [nM] | TGI [3] [µM] | GI50 [4] [nM] | TGI [4] [µM] | GI50 [5] [nM] | TGI [5] [µM] | GI50 [6] [µM] | TGI [6] [µM] | GI50 [7] [nM] | TGI [7] [µM] | GI50 [8] [nM] | TGI [8] [µM] | GI50 [9] [nM] | TGI [9] [µM] | GI50 [10] [µM] | TGI [10] [µM] |
| --- | --- | --- | --- | --- | --- | --- | --- | --- | --- | --- | --- | --- | --- | --- | --- | --- | --- | --- | --- | --- |
| C=C1C(=O)O[C@H]2[C@H]1CC/C(COC(=O)c1ccc(C(=O)O)s1)=C\CC[C@@]1(C)O[C@@H]21 | 3.47 | 11.5 | 1.63 | 8.66 | 2100 | 4.83 | 2610 | 8.37 | 1430 | 2.98 | 3.18 | 10.5 | 1740 | 3.5 | 2180 | 5.47 | 1560 | 3.5 | 1.6 | 3.06 |
| O=C1NC(=O)C(c2ccccc2Cl)=C1Nc1cccc(O)c1 | > 25 | > 25 | 7.05 | > 25 | > 25000 | > 25 | 9320 | > 25 | 4950 | > 25 | 7.02 | > 25 | > 19400 | > 25 | > 25000 | > 25 | 2790 | > 25 | > 25 | > 25 |
| CC1=CC[C@@H]2C(C)(C)[C@@H](O)CC[C@@]2(C)[C@@H]1COc1ccc2ccc(=O)oc2c1 | 12.7 | 27.4 | 3.39 | 19.9 | 11800 | 26.7 | 8820 | 27.9 | 4340 | 16 | 3.66 | 12.7 | 4770 | 22.7 | 12400 | 26.2 | 9830 | 44.6 | 13.9 | 43.3 |
| Cc1ccc(S(=O)(=O)NCCN2c3nc4ccccc4cc3Sc3cc4ccccc4nc32)cc1 | > 100 | > 100 | > 100 | > 100 | > 100000 | > 100 | 4930 | > 89.9 | > 26800 | > 100 | – | – | > 100000 | > 100 | > 100000 | > 100 | > 100000 | > 100 | 4.61 | > 100 |
| CC/C=C\C[C@H](O)C/C=C1/C(=O)C=C[C@@H]1C/C=C\CCCC(N)=O | 1.98 | 3.7 | 1.38 | 8.07 | 1930 | 4.26 | 1500 | 4.12 | 1260 | 4.22 | 3.45 | 16.8 | 2320 | 6.43 | 1970 | 5.3 | 1890 | 3.7 | 4.2 | 15.2 |
| Cc1cc(O)cc(C)c1/C=C/c1cncc(C(=O)N(C)C)c1 | > 25 | > 25 | > 25 | > 25 | > 25000 | > 25 | > 25000 | > 25 | > 25000 | > 25 | > 25 | > 25 | > 25000 | > 25 | > 25000 | > 25 | > 25000 | > 25 | > 25 | > 25 |
| CC1(C)C(=O)/C(=C\c2ccco2)C[C@]2(C)[C@H]3CC=C4[C@@H]5C[C@](C)(C(=O)O)CC[C@]5(C)CC[C@@]4(C)[C@]3(C)CC[C@@H]12 | 11 | 24.3 | 5.9 | 32.6 | 15100 | 31.1 | 7920 | 24.8 | 10900 | 26.1 | 12.8 | 27 | 7640 | 26 | 12500 | 38.9 | 11700 | 28.6 | 14.1 | 31.6 |
| NC(=O)c1ccccc1NC(=O)C(=O)C(c1cnc2ccc([N+](=O)[O-])cc2n1)[N+](=O)[O-] (stereo unspecified) | – | > 100 | – | > 100 | – | > 100 | – | > 100 | – | > 100 | – | > 100 | – | > 100 | – | > 100 | – | > 100 | – | > 100 |
| CCC(=O)N1C/C(=C/c2ccc(OC)cc2)C(=O)/C(=C/c2ccc(OC)cc2)C1 | 1.93 | 3.42 | 1.75 | 8.31 | 1850 | 3.74 | 1780 | 4.08 | 1820 | 3.73 | 3.37 | > 100 | 1780 | 3.51 | 2210 | 5.88 | 1180 | 4.13 | 1.98 | 4.28 |
| O=C(Nc1ccc(Br)cc1)c1cc(Br)cc(Br)c1O | 3.35 | 10.1 | 3.73 | > 100 | 4710 | 31.4 | 2790 | 23.1 | 2950 | 8 | 3.33 | > 100 | 2770 | 12.9 | 2080 | 5.41 | 4020 | 22.7 | 2.08 | 6.28 |
| c1ccc2c(NCCCCCCCCNc3c4ccccc4nc4ccccc34)c3ccccc3nc2c1 | – | 3.61 | – | 2.15 | – | – | – | 2.09 | – | 3.22 | – | 2.41 | – | 2.18 | – | 3.02 | – | 1.57 | – | 1.74 |
| Cc1ccc(-c2cc3nc(-c4ccccc4)nc(C(Cl)Cl)n3n2)cc1 | 0.891 | 1.69 | > 50 | > 50 | 1540 | 5.32 | 419 | 1.6 | 737 | 1.47 | 0.671 | 1.73 | 2920 | > 50 | 1530 | 6.68 | 1200 | 5.32 | 0.628 | 1.59 |
| O=C(N/N=C/c1ccc(F)cc1)c1[nH]c2ccc(I)cc2c1-c1ccccc1 | 0.888 | 12.5 | 0.383 | – | 494 | 55.4 | 484 | > 37.9 | 229 | 0.531 | 0.702 | > 87.4 | 1630 | > 100 | 3730 | > 96.6 | 350 | 10 | 1.34 | 6.82 |
